The text below walks through data of patent US20230083012A1, “DIHYDROPYRIMIDINE DERIVATIVES AND USES THEREOF IN THE TREATMENT OF HBV INFECTION OR OF HBV-INDUCED DISEASES” (priority 2019, published 2023).

Series [1] can be described thus: Cytotoxicity determination in HepG2.2.15 cells (CCK-8 cell viability). Format: cell-based. Particulars: human, 6 days treatment, CCK-8 assay, highest concentration 100 uM. The procedure, abridged: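 HepG2.2.15 cells seeded at 5,000 cells/well in 2% FBS medium, exposed 6 days to compounds (8-point 1:3 dilutions from 100 uM, triplicate), refreshed at day 3. Viability read by CCK-8 after 2.5 h at 37° C, absorbance 450 nm with 630 nm reference; CC50 calculated.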

The subject of the next series is HBV. The series is described as follows: Anti-HBV activity in HepG2.2.15 cells (HBV DNA in culture medium by qPCR). Format: cell-based. The following applies: Hepatitis B virus, HepG2.2.15, 144 h, HepG2.2.15 cells, 6 days treatment, HBV DNA in culture medium quantified by real-time PCR; read-out: EC50. In outline: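 HepG2.2.15 cells in 2% FBS medium at 37 °C were treated with compounds for 6 days, with medium and compound refreshed at day 3; 1:3 dilutions, 8 concentrations in triplicate, top 10 or 1 uM. HBV DNA in culture medium quantified by qPCR to derive EC50; CC50 from parallel plates (top 100 uM).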
(Real-time PCR tracks product formation cycle by cycle.)

SMILES strings stand for the structures.

As a reminder, the CC50 is the concentration giving 50% cytotoxicity. A word on the EC50: it is the concentration giving half of the maximal effect. Regarding `COC(=O)C1=C(CN2CC(F)(F)[C@H]3[C@@H]2CN(C(C)=O)N3CCC(C)(C)C(=O)O)NC(c2nccs2)=N[C@H]1c1ccc(F)c(F)c1Cl` (single isomer, unassigned) [Compound 79B, 4-((cis)-2-acetyl-4-((6-(2-chloro-3,4-difluorophenyl)-5-(methoxycarbonyl)-2-(thiazol-2-yl)-3,6-dihydropyrimidin-4-yl)methyl)-6,6-difluorohexahydropyrrolo[3,2-c]pyrazol-1(2H)-yl)-2,2-dimethylbutanoic acid], in series [1], the CC50 at 6 days amounted to 54900 nM. Also, the half-maximal effective concentration (EC50) in the series with HBV came to 27 nM.
For `CCOC(=O)C1=C(CN2CC(F)(F)[C@H]3[C@@H]2CN(C(C)=O)N3CCC(C)(C)C(=O)O)NC(c2nccs2)=N[C@@H]1c1ccc(F)c(F)c1C` (single isomer, unassigned) [Compound 80B, 4-((cis)-2-acetyl-4-((6-(3,4-difluoro-2-methylphenyl)-5-(ethoxycarbonyl)-2-(thiazol-2-yl)-3,6-dihydropyrimidin-4-yl)methyl)-6,6-difluorohexahydropyrrolo[3,2-c]pyrazol-1(2H)-yl)-2,2-dimethylbutanoic acid] the same measures were 24100 nM and 8 nM.
For `CCOC(=O)C1=C(CN2CC(F)(F)[C@H]3[C@@H]2CN(C(C)=O)N3CCC(C)(C)C(=O)O)NC(c2nccs2)=N[C@H]1c1cccc(F)c1Cl` (single isomer, unassigned) [Compound 81B, 4-((cis)-2-acetyl-4-((6-(2-chloro-3-fluorophenyl)-5-(ethoxycarbonyl)-2-(thiazol-2-yl)-3,6-dihydropyrimidin-4-yl)methyl)-6,6-difluorohexahydropyrrolo[3,2-c]pyrazol-1(2H)-yl)-2,2-dimethylbutanoic acid], it took 35900 nM to reach half-maximal cytotoxicity in series [1] (CC50 at 6 days). Further, the EC50 in the series on HBV was determined as 13 nM.
In series [1], `COC(=O)C1=C(CN2CC(F)(F)[C@H]3[C@@H]2CN(C(C)=O)N3CCC(C)(C)C(=O)O)NC(c2nccs2)=N[C@H]1c1ccc(F)c(F)c1C` (single isomer, unassigned) [Compound 82B, 4-((cis)-2-acetyl-4-((6-(3,4-difluoro-2-methylphenyl)-5-(methoxycarbonyl)-2-(thiazol-2-yl)-3,6-dihydropyrimidin-4-yl)methyl)-6,6-difluorohexahydropyrrolo[3,2-c]pyrazol-1(2H)-yl)-2,2-dimethylbutanoic acid] gave a CC50 at 6 days of 46900 nM. Besides, in the series with HBV, the EC50 was determined as 37 nM.
With `CCOC(=O)C1=C(CN2CC(F)(F)[C@@H]3[C@H]2CN(C(C)=O)N3CCC(C)(C)C(=O)O)NC(c2nccs2)=N[C@H]1c1ccc(F)c(F)c1F` (single isomer, unassigned) [Compound 83A, 4-((cis)-2-acetyl-4-((5-(ethoxycarbonyl)-2-(thiazol-2-yl)-6-(2,3,4-trifluorophenyl)-3,6-dihydropyrimidin-4-yl)methyl)-6,6-difluorohexahydropyrrolo[3,2-c]pyrazol-1(2H)-yl)-2,2-dimethylbutanoic acid], in series [1], the CC50 at 6 days came to 73500 nM. For the same molecule, in the series on HBV, the EC50 was determined as 46 nM.
For `CCOC(=O)C1=C(CN2CC(F)(F)[C@H]3[C@@H]2CN(C(C)=O)N3CCC(C)(C)C(=O)O)NC(c2nccs2)=N[C@H]1c1ccc(F)c(F)c1F` (single isomer, unassigned) [Compound 83B, 4-((cis)-2-acetyl-4-((5-(ethoxycarbonyl)-2-(thiazol-2-yl)-6-(2,3,4-trifluorophenyl)-3,6-dihydropyrimidin-4-yl)methyl)-6,6-difluorohexahydropyrrolo[3,2-c]pyrazol-1(2H)-yl)-2,2-dimethylbutanoic acid] the same measures were 39000 nM and 35 nM.
For `COC(=O)C1=C(CN2CC(F)(F)[C@@H]3[C@H]2CN(C(C)=O)N3CCC(C)(C)C(=O)O)NC(c2nccs2)=N[C@H]1c1cccc(F)c1Cl` (single isomer, unassigned) [Compound 84A] the same measures were over 100000 nM and 52 nM.
The corresponding values for `CCOC(=O)C1=C(CN2CC(F)(F)[C@@H]3[C@H]2CN(C(=O)C2(F)CC2)N3CCC(C)(C)C(=O)O)NC(c2nccs2)=N[C@H]1c1cccc(F)c1C` (single isomer, unassigned) [Compound 85] are 22600 nM and 69 nM.
In series [1], `CCOC(=O)C1=C(CN2CC(F)(F)[C@@H]3[C@H]2CN(C=O)N3CCC(C)(C)C(=O)O)NC(c2nccs2)=N[C@H]1c1cccc(F)c1C` (single isomer, unassigned) [Compound 86] came in with a CC50 at 6 days of over 50000 nM. Also, in the series on HBV, the EC50 was 130 nM.
The corresponding values for `CCOC(=O)C1=C(CN2CC(F)(F)[C@H]3[C@@H]2C(=O)N(CC(C)(C)C(=O)O)N3C)NC(c2nccs2)=N[C@H]1c1cccc(F)c1C` (single isomer, unassigned) [Compound 88] are 60000 nM and 1.5 nM.
The corresponding values for `CCOC(=O)C1=C(CN2CC(F)(F)[C@@H]3[C@H]2CN(C(C)C)N3CCC(C)(C)C(=O)O)NC(c2nccs2)=N[C@H]1c1cccc(F)c1C` (single isomer, unassigned) [Compound 89] are over 3120 nM and 60 nM.
In the case of `CCOC(=O)C1=C(CN2CC(F)(F)[C@@H]3[C@H]2CN(CC)N3CCC(C)(C)C(=O)O)NC(c2nccs2)=N[C@H]1c1cccc(F)c1C` (single isomer, unassigned) [Compound 90], in series [1], the CC50 at 6 days amounted to 19200 nM. Besides, in the series on HBV, the EC50 was determined as 20.5 nM.
Molecule `CCOC(=O)C1=C(CN2CC(F)(F)[C@@H]3[C@H]2CN(CC(F)F)N3CCC(C)(C)C(=O)O)NC(c2nccs2)=N[C@H]1c1cccc(F)c1C` (single isomer, unassigned) [Compound 91] yielded a CC50 at 6 days in series [1] of 8800 nM. For the same molecule, the EC50 with HBV is 71 nM.
`CCOC(=O)C1=C(CN2CC(F)(F)[C@@H]3[C@H]2CN(CC(F)(F)F)N3CCC(C)(C)C(=O)O)NC(c2nccs2)=N[C@H]1c1cccc(F)c1C` (single isomer, unassigned) [Compound 92] gave a CC50 at 6 days in series [1] of 5000 nM. Besides, in the series on HBV, the EC50 was 61 nM.
For `CCOC(=O)C1=C(CN2CC(F)(F)[C@@H]3[C@H]2CN(C)N3CCC(C)(C)C(=O)O)NC(c2nccs2)=N[C@@H]1c1ccc(F)c(F)c1C` (single isomer, unassigned) [Compound 93, 4-(4-((6-(3,4-difluoro-2-methylphenyl)-5-(ethoxycarbonyl)-2-(thiazol-2-yl)-3,6-dihydropyrimidin-4-yl)methyl)-6,6-difluoro-2-methylhexahydropyrrolo[3,2-c]pyrazol-1(2H)-yl)-2, ethylbutanoic acid] the same measures were 5400 nM and 12 nM.
In turn, `COC(=O)C1=C(CN2CC(F)(F)[C@@H]3[C@H]2CN(C)N3CCC(C)(C)C(=O)O)NC(c2nccs2)=N[C@H]1c1ccc(F)cc1Cl` (single isomer, unassigned) [Compound 94] returned a CC50 at 6 days in series [1] of 25000 nM. In the series with HBV, the EC50 was 14 nM.
Regarding `COC(=O)C1=C(CN2CC(F)(F)[C@@H]3[C@H]2CN(C)N3CCC(C)(C)C(=O)O)NC(c2nccs2)=N[C@H]1c1ccc(F)c(F)c1Cl` (single isomer, unassigned) [Compound 95, 4-((cis)-4-((6-(2-Chloro-3,4-difluorophenyl)-5-(methoxycarbonyl)-2-(thiazol-2-yl)-3,6-dihydropyrimidin-4-yl)methyl)-6,6-difluoro-2-methylhexahydropyrrolo[3,2-c]pyrazol-1(2H)-yl)-2,2-dimethylbutanoic acid], the midpoint of cytotoxicity in series [1], the CC50 at 6 days, lay at 8200 nM. For the same molecule, in the series on HBV, the EC50 turned out to be 24 nM.
